According to paper PMC7179450, “Primary Human Hepatocytes, But not HepG2 or Balb/c 3T3 Cells, Efficiently Metabolize Salinomycin and Are Resistant to Its Cytotoxicity” (Molecules, 2020):

Tests used:
[1] = system: hepatoma tumor; settings: mice, doses of 4 and 8 mg/kg b.w.; cited from earlier work
[2] = system: HepG2 cells; assay: Biotransformation of SAL and metabolites in HepG2 (LC-MS/MS); type: in vitro ADME, human; settings: HepG2, only after induction with prednisolone, 24 h (Figure 2C)
Experimental: The HepG2 cell line was purchased from the American Type Culture Collection (ATCC® HB-8065™). The cells were cultured in Minimum Essential Medium Eagle (MEME) (Sigma–Aldrich Co. (St. Louis, MO, USA)). Normal murine embryonic fibroblasts, Balb/c 3T3 clone A31 cell line (gift from Department of Swine Diseases of the National Veterinary Research Institute in Pulawy) was cultured in Dulbecco’s Modified Eagle’s Medium (DMEM) (Invitrogen Corporations (Paisley, UK)). The media were supplemented with 10% BCS (Balb/c 3T3), 10% FBS (HepG2), 1% L-glutamine, and 1% antibiotic solution. The cells were maintained in 75 cm^2 cell culture flasks in humidified incubator at 37 °C, in an atmosphere of 5% CO2. […] The initial cell viability was determined with the trypan blue exclusion test. […]
The medium samples from microplate wells were collected for identifying SAL metabolites and normalized to a cell number. An aliquot of 200 µL of each sample was measured to Eppendorf tube. […] The dry residue was reconstituted in 50% acetonitrile and analyzed with LC-MS/MS. […]
SAL (m/z 773.4 to m/z 431.3) was monitored in multiple reaction monitoring (MRM) modes. […]
The signals for further analysis were selected with the LightSight 2.3 software. […] These MRM transitions (with 20 chromatographic peaks) were then quantified with Multiquant 2.1. software. Quantitative analysis was performed for SAL. […]

CC[C@@H](C(=O)[C@@H](C)[C@@H](O)[C@H](C)[C@@H]1O[C@@H]([C@@H](CC)C(=O)O)CC[C@@H]1C)[C@H]1O[C@]2(C=C[C@@H](O)[C@]3(CC[C@@](C)([C@H]4CC[C@](O)(CC)[C@H](C)O4)O3)O2)[C@H](C)C[C@@H]1C [SAL, salinomycin]
effect on hepatoma tumor [1]: significantly reducing the hepatoma tumor | percentage of SAL metabolised [2]: ca. 20%
